The record followed here is the NIST ThermoML archive (doi:10.1021/je9002515).

The conditions of series [1]: 101 kPa, Liquid, Alternating current cell with electrodes.
The nature of series [2]: xn = mol fraction of the nth substance listed. To be noted: 101 kPa, Liquid, Alternating current cell with electrodes, x2 = 0.

± gives the expanded uncertainty stated by the source.

Consider `CC(=O)N(C)C` [N,N-dimethylethanamide], for which the electrical conductivity in series [1] (303.15 K) amounted to 0.0149 ± 0.0024 S/m; in series [1] (313.15 K), 0.0195 ± 0.0031 S/m; in series [1] (323.15 K) it was 0.024 ± 0.0038 S/m; in series [1] (333.15 K) it was 0.0307 ± 0.0049 S/m; in series [1] (343.15 K), 0.04 ± 0.0064 S/m; in series [1] (353.15 K), 0.0462 ± 0.0074 S/m. Besides, the electrical conductivity in series [1] (363.15 K) was found to be 0.0508 ± 0.0081 S/m; in series [1] (373.15 K), 0.0534 ± 0.0086 S/m; in series [1] (383.15 K), 0.0544 ± 0.0087 S/m; in series [1] (393.15 K) it was 0.0518 ± 0.0083 S/m.
Consider `CC(=O)N(C)C` [N,N-dimethylethanamide] + CNC(C)=O, for which the electrical conductivity was 0.0149 ± 0.0024 S/m in series [2] (303.15 K); 0.0195 ± 0.0031 S/m in series [2] (313.15 K); 0.024 ± 0.0038 S/m in series [2] (323.15 K); 0.0307 ± 0.0049 S/m in series [2] (333.15 K); 0.04 ± 0.0064 S/m in series [2] (343.15 K); 0.0462 ± 0.0074 S/m in series [2] (353.15 K). Further, the electrical conductivity in series [2] (363.15 K) was 0.0508 ± 0.0081 S/m; in series [2] (373.15 K) it was 0.0534 ± 0.0086 S/m; in series [2] (383.15 K), 0.0544 ± 0.0087 S/m; in series [2] (393.15 K), 0.0518 ± 0.0083 S/m.
In the case of `CNC(C)=O` [N-methylacetamide], the electrical conductivity in series [1] (303.15 K) worked out at 0.0324 ± 0.0052 S/m; in series [1] (313.15 K), 0.0447 ± 0.0072 S/m; in series [1] (323.15 K) it was 0.0614 ± 0.0098 S/m; in series [1] (333.15 K) it was 0.0775 ± 0.012 S/m; in series [1] (343.15 K) it was 0.105 ± 0.017 S/m; in series [1] (353.15 K), 0.129 ± 0.021 S/m. The electrical conductivity in series [1] (363.15 K) was determined as 0.165 ± 0.026 S/m; in series [1] (373.15 K), 0.192 ± 0.031 S/m; in series [1] (383.15 K) it was 0.219 ± 0.035 S/m; in series [1] (393.15 K), 0.247 ± 0.04 S/m.
